The test system of one data set is HeLa S3 cells. Briefly: Growth Inhibition Test on HeLa S3 Cells. It is filed as cell-based. The settings on record: Homo sapiens, 1 hour exposure, then 72 hours incubation, Neutral Red, 550 nm. Here is the method:
Growth Inhibition Test on HeLa S3 Cells
HeLa S3 cells were suspended in a MEM medium containing 10% fetal calf serum and 2 mM glutamine at a concentration of 3×10^4 cells/ml, and 0.1 ml of the cell suspension was put into each well of a 96-well microtiter plate.
After culturing at 37° C. overnight in a carbon dioxide gas incubator, 0.05 ml of a test sample appropriately diluted with the medium was added to each well. The cells were further cultured for one hour in the carbon dioxide gas incubator and the culture supernatant was removed. The residue was washed once with a phosphate buffer saline [PBS(-)] and 0.1 ml of a fresh medium was added to each well, and the cells were further incubated at 37° C. for 72 hours in the carbon dioxide gas incubator. After removal of the supernatant, 0.1 ml of a culture medium containing 0.02% Neutral Red was added to each well, and the cells were further incubated at 37° C. for one hour in the carbon dioxide gas incubator to stain the cells. After removal of the culture supernatant, each well was washed once with a physiological saline, and the dye was extracted with 0.001 N HCl/30% methanol. Absorbance of the extract at 550 nm was measured with a microplate reader. The cell growth inhibition percentage was calculated according to the following formula from the absorbance of the extract of the cells treated with the test compound in various concentrations and that of intact cells. [formula]
From the cell growth inhibition percentage thus obtained, the concentration of the test compound which inhibits cell growth by 50% (IC50) was determined.

Data set [1] can be described thus: Acute Toxicity (single intravenous injection). Particulars: mouse, in vivo, ddY mice, single i.v., 14 days observation, Behrens Kaerber's method. Here is the method: A test compound was intravenously injected once to five ddY mice as one group. […] LD50 was calculated from the death rate of each group according to the Behrens Kaerber's method.
Another data set deals with Sarcoma 180 Solid Tumor. Briefly: Anti-tumor Activity to Sarcoma 180 Solid Tumor. It is filed as in vivo. Particulars: Mus musculus, Sarcoma-180, iv, 168 h; dose of showing T/C=0.5 (tumor volume), male ddY mice, single i.v. 24 hours after s.c. implantation, measured at 7 days. The protocol: Anti-tumor Activity to Sarcoma 180 Solid Tumor
5×10^6 Sarcoma 180 cells were abdominally implanted into a ddY mouse and the cells were collected from the ascites of the mouse 7 days after the implantation. The cells were washed once with a sterilized physiological saline solution and then suspended in a sterilized physiological saline solution to prepare a cell suspension of 5×10^7 cells/ml. 0.1 ml of the cell suspension was subcutaneously implated into the right axillary space of each of male ddY mice weighing 20±2 g.
A test compound was dissolved in a physiological saline solution or a polyoxyethylene sorbitan monolaurate-containing physiological saline solution, and 0.1 to 0.2 ml of the solution was intravenously injected to five mice as one group 24 hours after the implatation of the tumor cells.
The anti-tumor activity of the test compound was determined by measuring the major diameter (a) and the minor diameter (b) of the tumor 7 days after the implantation of tumor cells, and the value of (a×b^2/ 2), which corresponds to the volume of the tumor, was calculated. The intended anti-tumor activity is represented by a ratio of T/C, in which C indicates the tumor volume of mice of the control group to which a physiological saline solution instead of the test compound was administered and T indicates the tumor volume of mice of the test group to which the test compound was administered. T/C at each dose given was plotted in a graph in which T/C is shown by an ordinary scale on the vertical axis and a dose is shown by a logarithmic scale on the horizontal axis. The relation between the dose and T/C was determined to be a straight line by the least-squares method. From the regression formula of the straight line thus obtained, the dose of showing T/C=0.5 is calculated to give ED50.

Each structure is given as a SMILES string.

By IC50 is commonly meant the point on the concentration scale where inhibition reaches its midpoint. A higher IC50 goes with weaker potency. `CO[C@@]12[C@H](COC(N)=O)C3=C(C(=O)C(CSc4ccccn4)=C(N)C3=O)N1C[C@@H]1N[C@@H]12` [Compound 1, 6-Demethyl-6-[(2-pyridylthio)methyl]mitomycin C] registered an IC50 with HeLa S3 cells of 1.8 µM.
By LD50 is commonly meant the dose at which mortality reaches 50%. In general, ED50 refers to the dose that gives a 50% effect, or the effect in half of the subjects. A high value points to weaker potency. `CO[C@@]12[C@H](COC(N)=O)C3=C(C(=O)C(CSc4ncccc4O)=C(N)C3=O)N1C[C@@H]1N[C@@H]12` [Compound 2, 6-Demethyl-6-[[(3-hydroxypyridin-2-yl)thio]methyl]mitomycin C]: the midpoint of inhibition in the data set on HeLa S3 cells, the IC50, lay at 0.19 µM. Moreover, the median lethal dose (LD50) at 336 h in data set [1] was 15 mg/kg. Further, in the data set with Sarcoma 180 Solid Tumor, the ED50 was 3.7 mg/kg.
The corresponding values for `CO[C@@]12[C@H](COC(N)=O)C3=C(C(=O)C(CSc4ncccn4)=C(N)C3=O)N1C[C@@H]1N[C@@H]12` [Compound 3, 6-Demethyl-6-[(2-pyrimidinylthio)methyl]mitomycin C] are 0.95 µM, 26 mg/kg and 8.9 mg/kg.
In turn, `CO[C@@]12[C@H](COC(N)=O)C3=C(C(=O)C(CSc4nc(C)cc(C)n4)=C(N)C3=O)N1C[C@@H]1N[C@@H]12` [Compound 4, 6-Demethyl-6-[[(4,6-dimethylpyrimidin-2-yl)thio]methyl]mitomycin C] gave a half-inhibitory concentration (IC50) with HeLa S3 cells of 1.1 µM.
As to `CO[C@@]12[C@H](COC(N)=O)C3=C(C(=O)C(CSC4=NCCS4)=C(N)C3=O)N1C[C@@H]1N[C@@H]12` [Compound 11, 6-Demethyl-6-[(2-thiazolinylthio)methyl]mitomycin C], in the data set on HeLa S3 cells, the IC50 is 0.82 µM. In data set [1], the LD50 at 336 h turned out to be 9.4 mg/kg. In the data set with Sarcoma 180 Solid Tumor, this compound returned an ED50 of 5.9 mg/kg.
The compound `CO[C@@]12[C@H](COC(N)=O)C3=C(C(=O)C(CSc4nccs4)=C(N)C3=O)N1C[C@@H]1N[C@@H]12` [Compound 12, 6-Demethyl-6-[(2-thiazolylthio)methyl]mitomycin C] displayed an IC50 in the data set on HeLa S3 cells of 1.4 µM.
Turning to `CO[C@@]12[C@H](COC(N)=O)C3=C(C(=O)C(CSc4nc5ccccc5s4)=C(N)C3=O)N1C[C@@H]1N[C@@H]12` [Compound 13, 6-Demethyl-6-[(2-benzothiazolylthio)methyl]mitomyc-in C], the IC50 in the data set with HeLa S3 cells is 0.7 µM. The compound also returned an LD50 at 336 h in data set [1] above 50 mg/kg. Besides, the ED50 in the data set on Sarcoma 180 Solid Tumor was found to be 36 mg/kg.
The corresponding values for `CO[C@@]12[C@H](COC(N)=O)C3=C(C(=O)C(CS[C@@H]4O[C@H](COC(C)=O)[C@@H](OC(C)=O)[C@H](OC(C)=O)[C@H]4OC(C)=O)=C(N)C3=O)N1C[C@@H]1N[C@@H]12` [Compound 16, 6-Demethyl-6-[[(2,3,4,6-tetra-O-acetyl-β-D-glucopyranosyl)thio]methyl]mitomycin C] are 1.1 µM, 38 mg/kg and 24 mg/kg.

For the origin of these results see patent US5180825A, “Mitomycin derivatives” (Kyowa Hakko Kogyo Co., Ltd., priority 1990, dated 1993).
